Measured values as given in ChEMBL document CHEMBL1139487, “Discovery of corticotropin releasing factor 2 receptor selective sauvagine analogues for treatment of skeletal muscle atrophy” (J Med Chem, 2005).

How the values were obtained:
[1] = target: Corticotropin-releasing factor receptor 2 (Mus musculus, UniProt Q60748); experiment: In vitro effective concentration for mouse corticotropin releasing factor 2 receptor
[2] = target: Corticotropin-releasing factor receptor 2 (Mus musculus) (UniProt Q60748); experiment: In vitro agonistic activity against mouse corticotropin releasing factor 2 receptor; type: functional
Corticotropin-releasing factor receptor 2 (Mus musculus), sequence (Q60748 whole entry): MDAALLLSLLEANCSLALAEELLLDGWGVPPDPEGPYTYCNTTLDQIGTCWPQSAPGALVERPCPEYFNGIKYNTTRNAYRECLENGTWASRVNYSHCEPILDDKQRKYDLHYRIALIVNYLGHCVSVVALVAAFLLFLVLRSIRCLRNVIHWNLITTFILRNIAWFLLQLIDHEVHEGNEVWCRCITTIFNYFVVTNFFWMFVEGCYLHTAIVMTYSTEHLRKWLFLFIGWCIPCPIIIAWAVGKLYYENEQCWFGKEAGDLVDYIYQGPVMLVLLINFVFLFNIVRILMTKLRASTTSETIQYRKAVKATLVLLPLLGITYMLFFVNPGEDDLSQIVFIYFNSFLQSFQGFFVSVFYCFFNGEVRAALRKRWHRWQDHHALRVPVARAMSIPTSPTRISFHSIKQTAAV

Mus musculus = organism: Mus musculus; experiment: Selectivity ratio of EC50s for mouse corticotropin releasing factor receptors 1 and 2
[3] = target: T1, Corticotropin-releasing factor receptor 1 (Mus musculus, UniProt P35347); experiment: In vitro effective concentration for mouse corticotropin releasing factor 1 receptor
T1 sequence (P35347 whole entry): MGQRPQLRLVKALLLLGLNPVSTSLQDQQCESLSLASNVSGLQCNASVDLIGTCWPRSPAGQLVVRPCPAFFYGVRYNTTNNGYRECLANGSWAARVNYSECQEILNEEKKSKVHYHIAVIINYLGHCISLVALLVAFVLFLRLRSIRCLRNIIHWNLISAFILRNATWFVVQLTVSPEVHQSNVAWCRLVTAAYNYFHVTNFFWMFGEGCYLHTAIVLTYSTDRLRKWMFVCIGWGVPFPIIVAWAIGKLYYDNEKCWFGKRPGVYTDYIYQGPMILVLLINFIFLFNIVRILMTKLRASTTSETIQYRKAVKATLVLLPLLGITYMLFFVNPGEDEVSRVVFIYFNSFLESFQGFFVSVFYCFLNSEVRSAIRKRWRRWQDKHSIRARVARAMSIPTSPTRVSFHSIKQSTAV

[4] = target: T2, Corticotropin-releasing factor receptor 1 (Mus musculus) (UniProt P35347); experiment: In vitro agonistic activity against mouse corticotropin releasing factor 1 receptor; type: functional
T2 sequence (whole entry): T1 sequence (P35347 whole entry)

Corticotropin-releasing factor receptor 2, sequence (Q60748 whole entry): as the sequence (Q60748 whole entry) above

| Structure (SMILES) | EC50 [1] [nM] | Emax [2] [%] | Selectivity (Mus musculus) | EC50 [3] [nM] | Emax [4] [%] |
| --- | --- | --- | --- | --- | --- |
| CC[C@H](C)[C@H](NC(=O)[C@@H](NC(=O)[C@H](CC(=O)O)NC(=O)[C@H](CC(C)C)NC(=O)[C@H](CC(C)C)NC(=O)[C@H](CC(C)C)NC(=O)[C@H](CCCN=C(N)N)NC(=O)[C@H](CC(N)=O)NC(=O)[C@H](CC(N)=O)NC(=O)[C@H](C)NC(=O)[C@H](C)NC(=O)[C@H](CCC(N)=O)NC(=O)[C@H](CCC(N)=O)NC(=O)[C@H](CCCCN)NC(=O)[C@H](CCC(=O)O)NC(=O)[C@H](CCCCN)NC(=O)[C@H](CCC(=O)O)NC(=O)[C@H](CCC(N)=O)NC(=O)[C@H](CCCCN)NC(=O)[C@H](CCC(=O)O)NC(=O)[C@@H](NC(=O)[C@H](CCC(=O)O)NC(=O)[C@@H](NC(=O)[C@H](CCSC)NC(=O)[C@H](CCCCN)NC(=O)[C@H](CCCN=C(N)N)NC(=O)[C@H](CC(C)C)NC(=O)[C@H](CC(C)C)NC(=O)[C@H](Cc1c[nH]cn1)NC(=O)[C@H](Cc1ccc(O)cc1)NC(=O)[C@@H]1CCCN1C(=O)[C@H](CC(C)C)NC(=O)[C@H](CC(=O)O)NC(=O)[C@@H](NC(=O)[C@H](CO)NC(=O)[C@@H](NC(=O)[C@@H]1CCCN1C(=O)[C@@H]1CCCN1C(=O)CNC(=O)[C@@H]1CCC(=O)N1)[C@@H](C)CC)[C@@H](C)CC)[C@@H](C)CC)[C@@H](C)CC)[C@@H](C)O)C(=O)O | 5.6 | 88 | 13 | 64.9 | 81 |
| CC[C@H](C)[C@H](NC(=O)[C@@H](NC(=O)[C@H](CC(=O)O)NC(=O)[C@H](CC(C)C)NC(=O)[C@H](CC(C)C)NC(=O)[C@H](CC(C)C)NC(=O)[C@H](CCCN=C(N)N)NC(=O)[C@H](CC(N)=O)NC(=O)[C@H](CC(N)=O)NC(=O)[C@H](C)NC(=O)[C@H](C)NC(=O)[C@H](CCC(N)=O)NC(=O)[C@H](CCC(N)=O)NC(=O)[C@H](CCCCN)NC(=O)[C@H](CCC(=O)O)NC(=O)[C@H](CCCCN)NC(=O)[C@H](CCC(=O)O)NC(=O)[C@H](CCC(N)=O)NC(=O)[C@H](CCCCN)NC(=O)[C@H](CCC(=O)O)NC(=O)[C@@H](NC(=O)[C@H](CCC(=O)O)NC(=O)[C@@H](NC(=O)[C@H](CCSC)NC(=O)[C@H](CCCCN)NC(=O)[C@H](CCCN=C(N)N)NC(=O)[C@H](CC(C)C)NC(=O)[C@H](CC(C)C)NC(=O)[C@H](CCC(N)=O)NC(=O)[C@@H](NC(=O)[C@@H]1CCCN1C(=O)[C@H](CC(C)C)NC(=O)[C@H](CC(=O)O)NC(=O)[C@@H](NC(=O)[C@H](CO)NC(=O)[C@@H](NC(=O)[C@@H]1CCCN1C(=O)[C@@H]1CCCN1C(=O)CNC(=O)[C@@H]1CCC(=O)N1)[C@@H](C)CC)[C@@H](C)CC)[C@@H](C)CC)[C@@H](C)CC)[C@@H](C)CC)[C@@H](C)O)C(=O)O | 24.6 | 78 | > 41 | > 1000 | 6 |
| CC[C@H](C)[C@H](NC(=O)[C@@H](NC(=O)[C@H](CC(=O)O)NC(=O)[C@H](CC(C)C)NC(=O)[C@H](CC(C)C)NC(=O)[C@H](CC(C)C)NC(=O)[C@H](CCCN=C(N)N)NC(=O)[C@H](CC(N)=O)NC(=O)[C@H](CC(N)=O)NC(=O)[C@H](C)NC(=O)[C@H](C)NC(=O)[C@H](CCC(N)=O)NC(=O)[C@H](CCC(N)=O)NC(=O)[C@H](CCCCN)NC(=O)[C@H](CCC(=O)O)NC(=O)[C@H](CCCCN)NC(=O)[C@H](CCC(=O)O)NC(=O)[C@H](CCC(N)=O)NC(=O)[C@H](CCCCN)NC(=O)[C@H](CCC(=O)O)NC(=O)[C@@H](NC(=O)[C@H](CCC(=O)O)NC(=O)[C@@H](NC(=O)[C@H](CCSC)NC(=O)[C@H](CCCCN)NC(=O)[C@H](CCCN=C(N)N)NC(=O)[C@H](CC(C)C)NC(=O)[C@H](CC(C)C)NC(=O)[C@H](Cc1ccccc1)NC(=O)[C@H](C)NC(=O)[C@@H]1CCCN1C(=O)[C@H](CC(C)C)NC(=O)[C@H](CC(=O)O)NC(=O)[C@@H](NC(=O)[C@H](CO)NC(=O)[C@@H](NC(=O)[C@@H]1CCCN1C(=O)[C@@H]1CCCN1C(=O)CNC(=O)[C@@H]1CCC(=O)N1)[C@@H](C)CC)[C@@H](C)CC)[C@@H](C)CC)[C@@H](C)CC)[C@@H](C)O)C(=O)O | 9.4 | 100 | 41 | 384 | 95 |
| CC[C@H](C)[C@H](NC(=O)[C@@H](NC(=O)[C@H](CC(=O)O)NC(=O)[C@H](CC(C)C)NC(=O)[C@H](CC(C)C)NC(=O)[C@H](CC(C)C)NC(=O)[C@H](CCCN=C(N)N)NC(=O)[C@H](CC(N)=O)NC(=O)[C@H](CC(N)=O)NC(=O)[C@H](C)NC(=O)[C@H](C)NC(=O)[C@H](CCC(N)=O)NC(=O)[C@H](CCC(N)=O)NC(=O)[C@H](CCCCN)NC(=O)[C@H](CCC(=O)O)NC(=O)[C@H](CCCCN)NC(=O)[C@H](CCC(=O)O)NC(=O)[C@H](CCC(N)=O)NC(=O)[C@H](CCCCN)NC(=O)[C@H](CCC(=O)O)NC(=O)[C@@H](NC(=O)[C@H](CCC(=O)O)NC(=O)[C@@H](NC(=O)[C@H](CCSC)NC(=O)[C@H](CCCCN)NC(=O)[C@H](CCCN=C(N)N)NC(=O)[C@H](CC(C)C)NC(=O)[C@H](CC(C)C)NC(=O)[C@@H](NC(=O)[C@H](Cc1ccc(O)cc1)NC(=O)[C@@H]1CCCN1C(=O)[C@H](CC(C)C)NC(=O)[C@H](CC(=O)O)NC(=O)[C@@H](NC(=O)[C@H](CO)NC(=O)[C@@H](NC(=O)[C@@H]1CCCN1C(=O)[C@@H]1CCCN1C(=O)CNC(=O)[C@@H]1CCC(=O)N1)[C@@H](C)CC)[C@@H](C)CC)C(C)C)[C@@H](C)CC)[C@@H](C)CC)[C@@H](C)O)C(=O)O | 5 | 100 | 20 | 100 | 80 |
| CC[C@H](C)[C@H](NC(=O)[C@@H](NC(=O)[C@H](CC(=O)O)NC(=O)[C@H](CC(C)C)NC(=O)[C@H](CC(C)C)NC(=O)[C@H](CC(C)C)NC(=O)[C@H](CCCN=C(N)N)NC(=O)[C@H](CC(N)=O)NC(=O)[C@H](CC(N)=O)NC(=O)[C@H](C)NC(=O)[C@H](C)NC(=O)[C@H](CCC(N)=O)NC(=O)[C@H](CCC(N)=O)NC(=O)[C@H](CCCCN)NC(=O)[C@H](CCC(=O)O)NC(=O)[C@H](CCCCN)NC(=O)[C@H](CCC(=O)O)NC(=O)[C@H](CCC(N)=O)NC(=O)[C@H](CCCCN)NC(=O)[C@H](CCC(=O)O)NC(=O)[C@@H](NC(=O)[C@H](CCC(=O)O)NC(=O)[C@@H](NC(=O)[C@H](CCSC)NC(=O)[C@H](CCCCN)NC(=O)[C@H](CCCN=C(N)N)NC(=O)[C@H](CC(C)C)NC(=O)[C@H](CC(C)C)NC(=O)[C@H](Cc1ccccc1)NC(=O)[C@H](Cc1c[nH]cn1)NC(=O)[C@@H]1CCCN1C(=O)[C@H](CC(C)C)NC(=O)[C@H](CC(=O)O)NC(=O)[C@@H](NC(=O)[C@H](CO)NC(=O)[C@@H](NC(=O)[C@@H]1CCCN1C(=O)[C@@H]1CCCN1C(=O)CNC(=O)[C@@H]1CCC(=O)N1)[C@@H](C)CC)[C@@H](C)CC)[C@@H](C)CC)[C@@H](C)CC)[C@@H](C)O)C(=O)O | 7.8 | 98 | 10 | 80.9 | 100 |
| CC[C@H](C)[C@H](NC(=O)[C@@H](NC(=O)[C@H](CC(=O)O)NC(=O)[C@H](CC(C)C)NC(=O)[C@H](CC(C)C)NC(=O)[C@H](CC(C)C)NC(=O)[C@H](CCCN=C(N)N)NC(=O)[C@H](CC(N)=O)NC(=O)[C@H](CC(N)=O)NC(=O)[C@H](C)NC(=O)[C@H](C)NC(=O)[C@H](CCC(N)=O)NC(=O)[C@H](CCC(N)=O)NC(=O)[C@H](CCCCN)NC(=O)[C@H](CCC(=O)O)NC(=O)[C@H](CCCCN)NC(=O)[C@H](CCC(=O)O)NC(=O)[C@H](CCC(N)=O)NC(=O)[C@H](CCCCN)NC(=O)[C@H](CCC(=O)O)NC(=O)[C@@H](NC(=O)[C@H](CCC(=O)O)NC(=O)[C@@H](NC(=O)[C@H](CCSC)NC(=O)[C@H](CCCCN)NC(=O)[C@H](CCCN=C(N)N)NC(=O)[C@H](CC(C)C)NC(=O)[C@H](CC(C)C)NC(=O)[C@H](Cc1c[nH]c2ccccc12)NC(=O)[C@H](Cc1ccc(O)cc1)NC(=O)[C@@H]1CCCN1C(=O)[C@H](CC(C)C)NC(=O)[C@H](CC(=O)O)NC(=O)[C@@H](NC(=O)[C@H](CO)NC(=O)[C@@H](NC(=O)[C@@H]1CCCN1C(=O)[C@@H]1CCCN1C(=O)CNC(=O)[C@@H]1CCC(=O)N1)[C@@H](C)CC)[C@@H](C)CC)[C@@H](C)CC)[C@@H](C)CC)[C@@H](C)O)C(=O)O | 4 | 100 | 47 | 187 | 100 |
| CC[C@H](C)[C@H](NC(=O)[C@@H](NC(=O)[C@H](CC(=O)O)NC(=O)[C@H](CC(C)C)NC(=O)[C@H](CC(C)C)NC(=O)[C@H](CC(C)C)NC(=O)[C@H](CCCN=C(N)N)NC(=O)[C@H](CC(N)=O)NC(=O)[C@H](CC(N)=O)NC(=O)[C@H](C)NC(=O)[C@H](C)NC(=O)[C@H](CCC(N)=O)NC(=O)[C@H](CCC(N)=O)NC(=O)[C@H](CCCCN)NC(=O)[C@H](CCC(=O)O)NC(=O)[C@H](CCCCN)NC(=O)[C@H](CCC(=O)O)NC(=O)[C@H](CCC(N)=O)NC(=O)[C@H](CCCCN)NC(=O)[C@H](CCC(=O)O)NC(=O)[C@@H](NC(=O)[C@H](CCC(=O)O)NC(=O)[C@@H](NC(=O)[C@H](CCSC)NC(=O)[C@H](CCCCN)NC(=O)[C@H](CCCN=C(N)N)NC(=O)[C@H](CC(C)C)NC(=O)[C@H](CC(C)C)NC(=O)[C@H](Cc1c[nH]cn1)NC(=O)[C@H](CC(C)C)NC(=O)[C@@H]1CCCN1C(=O)[C@H](CC(C)C)NC(=O)[C@H](CC(=O)O)NC(=O)[C@@H](NC(=O)[C@H](CO)NC(=O)[C@@H](NC(=O)[C@@H]1CCCN1C(=O)[C@@H]1CCCN1C(=O)CNC(=O)[C@@H]1CCC(=O)N1)[C@@H](C)CC)[C@@H](C)CC)[C@@H](C)CC)[C@@H](C)CC)[C@@H](C)O)C(=O)O | 1.9 | 81 | 28 | 52.2 | 96 |
